Assay results reported in patent US20260263529A1, “BIOENGINEERED COLON-SPECIFIC IMUNE NICHE FOR THE TREATMENT OF ULCERATIVE COLITIS” (THE BOARD OF REGENTS OF THE UNIVERSITY OF TEXAS SYSTEM, priority 2023, published 2026).

Tests used:
[1] = tested on: B16OVA tumor-bearing mice; experiment: Copanlisib-triggered colitis in B16OVA tumor model; assay type: in vivo, C57BL/6 mice; settings: copanlisib 25 mg/kg i.p.
Protocol: B16F10, B16OVA, and MC38 xenograft tumors were inoculated into healthy C57BL/6 mice (female, 7 to 8 weeks old) through s.c. inoculation of B16F10 cells (2.5×10^5 cells/mouse) in serum-free DMEM, B16OVA cells (2.5×10^5 cells/mouse) in serum-free RPMI 1640 culture medium, and MC38 cells (5×10^5 cells/mouse) in serum-free DMEM in the right flank. Tumor volume (volume=0.5×a×b^2, where a is the large diameter and b is the small diameter) was measured every 2 to 3 days from day 7 after the tumor was inoculated.
For the COP-triggered colitis study in the B16OVA tumor model, COP treatment was provided by i.p. administration of COP (25 mg/kg, in saline) at days 6, 8, 10, 12, 14, 16 and 18 after tumor inoculation. Colitis was induced by feeding the tumor-bearing mice 3% DSS at day 14 for 4 days. For the colitis treatment group, mice received a single s.c. treatment with COMBO COIN at day 18. Bodyweight and DAI scores were monitored every 2 or 3 days. Mice were euthanized at 22 days post-inoculation. Colons were preserved by trained veterinary technicians at the UTSW ARC Diagnostic Laboratory without prior knowledge of the treatment. The lengths of preserved colons were measured and fixed with 10% NBF for 24 h. Fixed specimens were kept in 70% ethanol and transferred to the UTSW Histo Pathology Core for histological study (H&E, Ki67 and TUNEL stains).

[2] = Aqueous electrophoresis (zeta potential); assay type: physicochemical; settings: dispersed in 1X PBS, diluted 100 times with deionized water, pH 6.8-8.0, 25° C.
Protocol: Sphere-equivalent intensity-average diameters (Dh) and zeta potentials of all NF samples were measured in a Malvern Zetasizer Pro instrument.

| colitis symptoms induced by cancer treatment [1] | Compound | B16OVA tumor growth [1] | Average zeta potential [2] |
| --- | --- | --- | --- |
| induced mild colitis symptoms | COc1c(OCCCN2CCOCC2)ccc2c1N=C(NC(=O)c1cnc(N)nc1)N1CCN=C21 [Copanlisib, copanlisib] | effectively inhibited B16OVA tumor growth |  |
|  | ACESPLKRQCGGG [TGF-β1 mimetic peptide] |  | +22.1 ± 3.1 mV |
